Data: paper PMC11650737, “Developing MYC Degraders Bearing the Von Hippel–Lindau Ligand to Target the “Undruggable” MYC” (ACS Pharmacology & Translational Science, 2024)

Experiments:
[1] = tested on: various cancer cell lines; test: Cell viability (MTT) assay, cell line not singled out; assay type: cell-based; conditions: Homo sapiens, 72 h, summary over cancer cell lines (breast and prostate), read-out: IC50 (antiproliferative activity)
Description: (§1) The antiproliferative activity of the synthesized compounds was tested in cell viability assays optimally set up for various cancer cell lines (results are depicted in Table 2, n = 3, average IC50 (μM) ± SD).
Cells were plated at a density of 5 × 10^3 cells per well on 96-well plates. After 24 h of incubation (37 °C, 5% CO2), the cell medium was removed, and compounds were added at selected concentrations (0.1–100 μM), followed by incubation for 72 h. Control cells were treated with 0.4% DMSO medium to match the conditions in the wells where drugs were added. After 72 h, the medium was removed, and the 3-(4,5-dimethylthiazol-2-yl)-2,5-diphenyltetrazolium bromide (MTT) solution (0.3 mg/mL in PBS) was added to cells for 3 h under no light conditions. The MTT solution was removed, and the formazan crystals were dissolved in 100 μL of DMSO. The optical density was measured at 570 nm with a reference wavelength of 690 nm using an absorbance microplate reader (SpectraMax 190, Molecular Devices, Sunnyvale, CA, USA). The half-maximal inhibitory concentration (IC50) was calculated based on a four-parameter logistic equation, generating a cell viability curve, using GraphPad Prism 6.01 (GraphPad Software, Inc.). […] The resulting absorbance values were used instead of IC50 calculation. […]

SKBR3 cells = test: Cell viability (MTT) assay, SKBR3; assay type: cell-based, human; conditions: Homo sapiens, SK-BR-3, 72 h, read-out: IC50 (antiproliferative effect)
Description: as §1
Cells were plated at a density of 5 × 10^3 cells per well on 96-well plates. After 24 h of incubation (37 °C, 5% CO2), the cell medium was removed, and compounds were added at selected concentrations (0.1–100 μM), followed by incubation for 72 h. Control cells were treated with 0.4% DMSO medium to match the conditions in the wells where drugs were added. After 72 h, the medium was removed, and the 3-(4,5-dimethylthiazol-2-yl)-2,5-diphenyltetrazolium bromide (MTT) solution (0.3 mg/mL in PBS) was added to cells for 3 h under no light conditions. The MTT solution was removed, and the formazan crystals were dissolved in 100 μL of DMSO. The optical density was measured at 570 nm with a reference wavelength of 690 nm using an absorbance microplate reader (SpectraMax 190, Molecular Devices, Sunnyvale, CA, USA). The half-maximal inhibitory concentration (IC50) was calculated based on a four-parameter logistic equation, generating a cell viability curve, using GraphPad Prism 6.01 (GraphPad Software, Inc.). Two concentrations of an established drug, Docetaxel (100 nM and 1 nM), were used in each experiment as a positive control. The resulting absorbance values were used instead of IC50 calculation. Each point was the result of three independent experiments performed in triplicate.

[2] = Stability of PROTACs in cell medium (DMEM), LC-MS/MS; assay type: physicochemical; conditions: 72 h at 37 °C, 5 μM in DMEM (10% FBS)
Description: The stability of selected molecules, such as CSI86, was studied in cell medium over a time frame of 72 h at 37 °C.
The stability of most compounds, including CSI86 PROTAC, was evaluated in DMEM. The drug was prepared at a concentration of 5 μM in DMEM (10% FBS, 1% pen/strep) and aliquoted at approximately 200 μL per Eppendorf. The samples were collected at appropriate time points (0, 1 h, 2 h, 4 h, 8 h, 24 h, 48 h, and 72 h) and stored at −80 °C. On the day of the LC-MS/MS analysis, samples were prepared (50 μL drug in DMEM + 50 μL ACN:H2O + 50 μL IS + 100 μL cold ACN), vortexed, sonicated, and centrifuged at 13 000 rpm for 15 min. Then, samples were transferred into glass tubes, diluted in the initial mobile phase (20% Α – 80% Β), centrifuged for 1 min, and added to a 96-well plate for the LC-MS/MS analysis.

c-MYC = target: T1, c-MYC (Homo sapiens, UniProt P01106); test: MYC degradation in PC3 cells, Western blot; assay type: cell-based
T1 construct: endogenous in cells; host or cells: PC3
Description: The ability of novel compounds to induce MYC degradation in the PC3 cell line was evaluated via a Western blot-based assay. […] A PROTAC that effectively degrades bromodomain and extra-terminal (BET) family proteins, with indirect action on MYC levels, BETd-260, was also included in these experiments as a positive control. BETd-260 was tested at a lower concentration (1 μΜ) due to its high potency.[26]
PC3 cells were used for the determination of MYC levels after treatment with the PROTACs under study. Cells (at a density of 250 000 per well) were seeded in 6-well plates for 24 h until 60% confluence. During the 24-h incubation period, cells were treated with the tested compounds (10 μΜ) and BETd-260 (1 μΜ) that was used as a positive control. For rescue experiments, cells were pretreated with the inhibitor MG-132 for 2 h, and then, the medium was removed, followed by the addition of the selected compound. After the 24-h incubation period, a cell lysis protocol was performed. The medium was removed, and the cells were rinsed with cold PBS. Lysis was induced using RIPA lysis buffer (50 mM Tris-HCl at pH 7.5, 150 mM NaCl, 5 mM Na2EDTA, 1 mM EGTA, 0.1% SDS, 1% NP-40, 0.5% sodium deoxycholate, 8 mM sodium fluoride, and 1 mM sodium orthovanadate) and protease inhibitor cocktail (Roche, UK). Total protein concentration in lysate samples was determined via performance of the Bradford assay in bovine serum albumin (BSA). Standard and unknown samples were preformulated in Coomassie blue G-250 assay reagent (Thermo Fisher Scientific, MA, USA), followed by a readout at 595 nm. Separation of the protein isolated from PC3 lysates, respectively (10 μg), with NuPAGE sample reducing agent and NuPAGE LDS sample buffer (Invitrogen, UK), was achieved via SDS-PAGE electrophoresis at 110 V for 2 h, prior to overnight transfer to the polyvinylidene difluoride (PVDF) membrane. The membranes were then blocked in 5% nonfat dry milk in Tris-buffered saline with 0.1% Tween-20 (TBST-T) for 1 h at room temperature.
Detection of MYC in PC3 cells was accomplished via immunoblot of the POI with the indicated monoclonal antibody (Cell Signaling Technology, MA, USA, catalog number #5605) at 1:1000 in TBST at […] overnight. The secondary anti-rabbit peroxidase-conjugate antibody (Cell Signaling Technology, MA, USA, catalog number #7074) was further added at 1:2000 dilution, followed by 1-h incubation at room temperature. Chemiluminescent visualization of the MYC protein bands was performed after the addition of Immobilon Crescendo Western HRP substrate (Sigma-Aldrich, Munich, Germany). For normalization of MYC concentration, GAPDH was labeled using the specific rabbit monoclonal antibody (Cell Signaling Technology, MA, USA, catalog number #5174) at 1:20000 in 5% nonfat dry milk. Protein bands were quantified with the ImageJ software.

T1 sequence (P01106 whole entry): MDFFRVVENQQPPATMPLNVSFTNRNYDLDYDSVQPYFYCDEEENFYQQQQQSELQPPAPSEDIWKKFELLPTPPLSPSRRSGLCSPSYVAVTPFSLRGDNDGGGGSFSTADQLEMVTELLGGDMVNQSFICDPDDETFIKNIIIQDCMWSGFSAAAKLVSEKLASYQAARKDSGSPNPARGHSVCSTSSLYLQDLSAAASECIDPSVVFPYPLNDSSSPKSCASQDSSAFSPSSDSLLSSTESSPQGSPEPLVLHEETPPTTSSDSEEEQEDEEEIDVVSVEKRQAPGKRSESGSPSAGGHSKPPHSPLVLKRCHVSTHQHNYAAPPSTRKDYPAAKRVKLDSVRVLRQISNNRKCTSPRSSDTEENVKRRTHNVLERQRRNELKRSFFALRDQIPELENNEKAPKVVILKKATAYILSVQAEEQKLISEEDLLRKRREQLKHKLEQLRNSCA

IC50 [1] [µM] | IC50 (SKBR3 cells) [µM] | stability in cell medium (DMEM) [2] | dose dependence of MYC degradation (c-MYC; 1–20 μΜ, 24 h) | c-MYC degradation after short treatment (c-MYC; 10 μΜ, 3 h) | MYC degradation (MYC levels by Western blot) (c-MYC; 10 μΜ, 24 h) | MYC levels after pretreatment with proteasome inhibitor MG-132 (c-MYC; MG-132 10 μΜ 2 h, then compound 10 μΜ 24 h, versus control group) | SMILES
13 to 18 | 15 ± 4 | stable |  |  |  |  | Cc1ncsc1-c1ccc(CNC(=O)[C@@H]2C[C@@H](O)CN2C(=O)[C@@H](NC(=O)CCC(=O)NCCCOc2ccc(-c3cc(C(F)(F)F)nn3C)c(O)c2-c2cc(C(F)(F)F)cc(C(F)(F)F)c2)C(C)(C)C)cc1 [CSI86]
13 to 18 | 14 ± 2 |  | dose-dependent manner | effectively mediated c-MYC degradation | significantly active | no reduction in MYC levels | Cc1ncsc1-c1ccc(CNC(=O)[C@@H]2C[C@@H](O)CN2C(=O)[C@@H](NC(=O)CCCC(=O)NCCCOc2ccc(-c3cc(C(F)(F)F)nn3C)c(O)c2-c2cc(C(F)(F)F)cc(C(F)(F)F)c2)C(C)(C)C)cc1 [CSI107]
 |  |  |  |  | No particular effect |  | Cc1ncsc1-c1ccc(CNC(=O)[C@@H]2C[C@@H](O)CN2C(=O)[C@@H](NC(=O)COCCOCC(=O)NCCCOc2ccc(-c3cc(C(F)(F)F)nn3C)c(O)c2-c2cc(C(F)(F)F)cc(C(F)(F)F)c2)C(C)(C)C)cc1 [CSI135]
